The text below walks through data of PubChem BioAssay (NCI).

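Values below derive from 48-hour exposures of cells grown in 96-well plates, with endpoints linearly interpolated between the two concentrations bracketing the appropriate inhibition level. At the GI50, growth is halved. TGI: total growth inhibition.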 Some results are limits rather than exact numbers.

The test system of one test is HS 578T breast. The test is described as follows: growth of human tumour cells (NCI), 48 h.
Take `CC(C)(C)c1ccc(Oc2nccc(-c3c(-c4ccc(F)cc4)ncn3C3CCNCC3)n2)cc1`: the GI50 was 5.1 µM and the TGI turned out to be 13.1 µM.
On the same counts, the results for `C[C@H]1[C@H](C)CC[C@]2(CO)CC[C@]3(C)C(=CC[C@@H]4[C@@]5(C)CCCNC(C)(C)[C@@H]5CC[C@]43C)[C@H]12` are 2.05 µM and 4.86 µM.
Turning to `O=C(O)C(/C=C/c1ccccc1)c1ccccc1` (stereo not drawn), the TGI was greater than 100 µM.
Regarding `COc1ccc(-c2cn(-c3cc(OC)c(OC)c(OC)c3)c(SCc3ccccc3)n2)cc1OC`, the GI50 was greater than 100 µM and the TGI is greater than 100 µM.
Turning to `COc1c(C)c2c(c(O)c1C/C=C(\C)CCC(=O)O)C(=O)OC2`, the GI50 is 0.853 µM and the TGI was greater than 100 µM.
The corresponding values for `Cc1cc(O)c(C(C)C)cc1S(=O)(=O)O` (tested in a mixture with another compound) are 0.281 µM and 1.92 µM.
On the same counts, the results for `COc1cc(C(=O)O[C@H](C(=O)NCCCCCNC(=O)[C@@H](OC(=O)c2cc(OC)cc3c(C)cccc23)[C@]2(C)CO2)[C@]2(C)CO2)c2cccc(C)c2c1` are 0.943 µM and 6.51 µM.
As for `COC(=O)C1(C)CCC(c2ccc(C)cc2)=C(CC(=O)O)C1` (stereo not drawn), the TGI was greater than 100 µM.
`COc1cc(OC(=O)c2ccccc2)cc2c1C(=O)C=CC2=O` yielded a TGI of 69.3 µM.
On to `CC(C)(C)OC(=O)N1CCN(CCn2cc(C(F)(F)F)c3c(Cl)ncnc32)CC1`, for which the GI50 was 2.84 µM and the TGI was determined as 8.29 µM.
The corresponding values for `COc1cc([N+](=O)[O-])c(OC)cc1-c1nc2sc(Cl)cn2c1/C(N)=N/C(=N)N` are 2.72 µM and 6.8 µM.
With `CCC1C2Cc3ccc(O)cc3C1(CC)CCN2C` (stereo not drawn), the TGI was greater than 100 µM.
Regarding `CN(CCCn1c2c(c3ccccc3c1=O)C(=O)c1ccccc1-2)CCCn1c2c(c3ccccc3c1=O)C(=O)c1ccccc1-2`, the GI50 was 2.67 µM and the TGI is greater than 100 µM.
On the same counts, the results for `COc1ccc2cc(C(=O)/C=C/c3ccc(Cl)cc3Cl)ccc2c1` are 28.1 µM and 73.7 µM.

In the next test the test system is HCC-2998 colon. As to the kind of experiment: growth of human tumour cells (NCI), 48 h.
As for `CC(C)(C)c1ccc(Oc2nccc(-c3c(-c4ccc(F)cc4)ncn3C3CCNCC3)n2)cc1`, the GI50 was 1.38 µM and the TGI was 4.98 µM.
The corresponding values for `C[C@H]1[C@H](C)CC[C@]2(CO)CC[C@]3(C)C(=CC[C@@H]4[C@@]5(C)CCCNC(C)(C)[C@@H]5CC[C@]43C)[C@H]12` are 1.75 µM and 3.46 µM.
On the same counts, the results for `COc1ccc(-c2cn(-c3cc(OC)c(OC)c(OC)c3)c(SCc3ccccc3)n2)cc1OC` are 84.7 µM and greater than 100 µM.
The corresponding values for `COc1c(C)c2c(c(O)c1C/C=C(\C)CCC(=O)O)C(=O)OC2` are 0.404 µM and greater than 100 µM.
With `Cc1cc(O)c(C(C)C)cc1S(=O)(=O)O` (tested in a mixture with another compound), the GI50 is 0.229 µM.
Regarding `COc1cc(C(=O)O[C@H](C(=O)NCCCCCNC(=O)[C@@H](OC(=O)c2cc(OC)cc3c(C)cccc23)[C@]2(C)CO2)[C@]2(C)CO2)c2cccc(C)c2c1`, the GI50 was 0.254 µM and the TGI came out at 3.55 µM.
The corresponding values for `CC/C=C1/C(=O)C=C[C@@H]1C/C=C\CCCC(=O)OC` are 2.13 µM and 3.83 µM.
On to `COc1ccc(/C(COc2ccc3c(=O)cc(-c4ccccc4)oc3c2)=N\O)cc1`, for which the GI50 was 16.5 µM and the TGI was greater than 50 µM.
On the same counts, the results for `CC(C)(C)OC(=O)N1CCN(CCn2cc(C(F)(F)F)c3c(Cl)ncnc32)CC1` are 2.05 µM and 4.53 µM.
On the same counts, the results for `COc1cc([N+](=O)[O-])c(OC)cc1-c1nc2sc(Cl)cn2c1/C(N)=N/C(=N)N` are 1.99 µM and 4.15 µM.
`CN(CCCn1c2c(c3ccccc3c1=O)C(=O)c1ccccc1-2)CCCn1c2c(c3ccccc3c1=O)C(=O)c1ccccc1-2`: the GI50 was 0.385 µM and the TGI worked out at 9.46 µM.
The corresponding values for `C(#Cc1ccccc1C#Cc1cccs1)c1cccs1` are 24 µM and 65.2 µM.
On the same counts, the results for `COc1ccc2cc(C(=O)/C=C/c3ccc(Cl)cc3Cl)ccc2c1` are 15.3 µM and 29.1 µM.

For the next test, the system named is IGROV1 ovarian. The test is described as follows: growth of human tumour cells (NCI), 48 h.
As for `CC(C)(C)c1ccc(Oc2nccc(-c3c(-c4ccc(F)cc4)ncn3C3CCNCC3)n2)cc1`, the GI50 was 3.86 µM and the TGI was 8.01 µM.
Take `C[C@H]1[C@H](C)CC[C@]2(CO)CC[C@]3(C)C(=CC[C@@H]4[C@@]5(C)CCCNC(C)(C)[C@@H]5CC[C@]43C)[C@H]12`: the GI50 is 1.85 µM and the TGI stood at 3.72 µM.
In turn, `O=C(O)C(/C=C/c1ccccc1)c1ccccc1` (stereo not drawn) had a TGI greater than 100 µM.
On to `COc1ccc(-c2cn(-c3cc(OC)c(OC)c(OC)c3)c(SCc3ccccc3)n2)cc1OC`, for which the GI50 is greater than 100 µM and the TGI is greater than 100 µM.
Take `COc1c(C)c2c(c(O)c1C/C=C(\C)CCC(=O)O)C(=O)OC2`: the GI50 was 0.253 µM and the TGI was greater than 100 µM.
Take `Cc1cc(O)c(C(C)C)cc1S(=O)(=O)O` (tested in a mixture with another compound): the GI50 is 0.554 µM.
For the molecule `COc1cc(C(=O)O[C@H](C(=O)NCCCCCNC(=O)[C@@H](OC(=O)c2cc(OC)cc3c(C)cccc23)[C@]2(C)CO2)[C@]2(C)CO2)c2cccc(C)c2c1`, the GI50 is 1.43 µM and the TGI is greater than 100 µM.
With `COC(=O)C1(C)CCC(c2ccc(C)cc2)=C(CC(=O)O)C1` (stereo not drawn), the TGI was greater than 100 µM.
Turning to `COc1cc(OC(=O)c2ccccc2)cc2c1C(=O)C=CC2=O`, the TGI was 29 µM.
As for `CC/C=C1/C(=O)C=C[C@@H]1C/C=C\CCCC(=O)OC`, the GI50 was 3.76 µM and the TGI turned out to be 15.8 µM.
On the same counts, the results for `COc1ccc(/C(COc2ccc3c(=O)cc(-c4ccccc4)oc3c2)=N\O)cc1` are 16.6 µM and greater than 47.6 µM.
On the same counts, the results for `CC(C)(C)OC(=O)N1CCN(CCn2cc(C(F)(F)F)c3c(Cl)ncnc32)CC1` are 1.84 µM and 3.74 µM.
As for `COc1cc([N+](=O)[O-])c(OC)cc1-c1nc2sc(Cl)cn2c1/C(N)=N/C(=N)N`, the GI50 was 5.18 µM and the TGI was greater than 54.6 µM.
`CCC1C2Cc3ccc(O)cc3C1(CC)CCN2C` (stereo not drawn) registered a TGI greater than 100 µM.
For `C(#Cc1ccccc1C#Cc1cccs1)c1cccs1`, the GI50 is greater than 100 µM and the TGI was greater than 100 µM.

For the next test, the system named is MDA-MB-231 breast. The test is described as follows: growth of human tumour cells (NCI), 48 h.
Take `CC(C)(C)c1ccc(Oc2nccc(-c3c(-c4ccc(F)cc4)ncn3C3CCNCC3)n2)cc1`: the GI50 was 3.87 µM and the TGI stood at 7.39 µM.
On the same counts, the results for `C[C@H]1[C@H](C)CC[C@]2(CO)CC[C@]3(C)C(=CC[C@@H]4[C@@]5(C)CCCNC(C)(C)[C@@H]5CC[C@]43C)[C@H]12` are 1.88 µM and 3.48 µM.
For the molecule `O=C(O)C(/C=C/c1ccccc1)c1ccccc1` (stereo not drawn), the TGI is greater than 100 µM.
Turning to `COc1ccc(-c2cn(-c3cc(OC)c(OC)c(OC)c3)c(SCc3ccccc3)n2)cc1OC`, the GI50 is greater than 100 µM and the TGI is greater than 100 µM.
With `COc1c(C)c2c(c(O)c1C/C=C(\C)CCC(=O)O)C(=O)OC2`, the GI50 was 0.956 µM and the TGI is greater than 100 µM.
As for `Cc1cc(O)c(C(C)C)cc1S(=O)(=O)O` (tested in a mixture with another compound), the GI50 was 0.377 µM and the TGI worked out at 1.65 µM.
The corresponding values for `COc1cc(C(=O)O[C@H](C(=O)NCCCCCNC(=O)[C@@H](OC(=O)c2cc(OC)cc3c(C)cccc23)[C@]2(C)CO2)[C@]2(C)CO2)c2cccc(C)c2c1` are 0.893 µM and 4.03 µM.
The molecule `COC(=O)C1(C)CCC(c2ccc(C)cc2)=C(CC(=O)O)C1` (stereo not drawn) yielded a TGI greater than 100 µM.
Still for that read-out and setting: in the case of `COc1cc(OC(=O)c2ccccc2)cc2c1C(=O)C=CC2=O` it was 5.48 µM.
As to `CC/C=C1/C(=O)C=C[C@@H]1C/C=C\CCCC(=O)OC`, the GI50 is 4.43 µM and the TGI was 15.4 µM.
The corresponding values for `COc1ccc(/C(COc2ccc3c(=O)cc(-c4ccccc4)oc3c2)=N\O)cc1` are 5.82 µM and 22.5 µM.
Turning to `CC(C)(C)OC(=O)N1CCN(CCn2cc(C(F)(F)F)c3c(Cl)ncnc32)CC1`, the GI50 is 11.1 µM and the TGI came to 27.5 µM.
The corresponding values for `COc1cc([N+](=O)[O-])c(OC)cc1-c1nc2sc(Cl)cn2c1/C(N)=N/C(=N)N` are 2.19 µM and 8.25 µM.
In the case of `CCC1C2Cc3ccc(O)cc3C1(CC)CCN2C` (stereo not drawn), the TGI is greater than 100 µM.
As to `C(#Cc1ccccc1C#Cc1cccs1)c1cccs1`, the GI50 was 23.4 µM and the TGI worked out at 82.1 µM.
The corresponding values for `COc1ccc2cc(C(=O)/C=C/c3ccc(Cl)cc3Cl)ccc2c1` are 44.6 µM and greater than 100 µM.

A further test concerns SF-539 CNS. As to the kind of experiment: growth of human tumour cells (NCI), 48 h.
`CC(C)(C)c1ccc(Oc2nccc(-c3c(-c4ccc(F)cc4)ncn3C3CCNCC3)n2)cc1`: the GI50 was 4.38 µM and the TGI is 8.03 µM.
With `C[C@H]1[C@H](C)CC[C@]2(CO)CC[C@]3(C)C(=CC[C@@H]4[C@@]5(C)CCCNC(C)(C)[C@@H]5CC[C@]43C)[C@H]12`, the GI50 was 1.69 µM and the TGI was determined as 3.16 µM.
`O=C(O)C(/C=C/c1ccccc1)c1ccccc1` (stereo not drawn): the TGI was greater than 100 µM.
In the case of `COc1ccc(-c2cn(-c3cc(OC)c(OC)c(OC)c3)c(SCc3ccccc3)n2)cc1OC`, the GI50 is greater than 100 µM and the TGI was greater than 100 µM.
On to `COc1c(C)c2c(c(O)c1C/C=C(\C)CCC(=O)O)C(=O)OC2`, for which the GI50 was 0.491 µM and the TGI was greater than 100 µM.
For `Cc1cc(O)c(C(C)C)cc1S(=O)(=O)O` (tested in a mixture with another compound), the GI50 is 0.319 µM.
In the case of `COc1cc(C(=O)O[C@H](C(=O)NCCCCCNC(=O)[C@@H](OC(=O)c2cc(OC)cc3c(C)cccc23)[C@]2(C)CO2)[C@]2(C)CO2)c2cccc(C)c2c1`, the GI50 was 0.119 µM and the TGI was determined as 0.587 µM.
On to `COC(=O)C1(C)CCC(c2ccc(C)cc2)=C(CC(=O)O)C1` (stereo not drawn), for which the TGI is greater than 100 µM.
Still for that read-out and setting: as for `COc1cc(OC(=O)c2ccccc2)cc2c1C(=O)C=CC2=O`, the figure is 41.7 µM.
With `CC/C=C1/C(=O)C=C[C@@H]1C/C=C\CCCC(=O)OC`, the GI50 is 3.66 µM and the TGI was 13.7 µM.
On the same counts, the results for `COc1ccc(/C(COc2ccc3c(=O)cc(-c4ccccc4)oc3c2)=N\O)cc1` are 12.8 µM and 24.3 µM.
The corresponding values for `CC(C)(C)OC(=O)N1CCN(CCn2cc(C(F)(F)F)c3c(Cl)ncnc32)CC1` are 12.8 µM and 26.1 µM.
Turning to `COc1cc([N+](=O)[O-])c(OC)cc1-c1nc2sc(Cl)cn2c1/C(N)=N/C(=N)N`, the GI50 is 4.53 µM and the TGI was 50.8 µM.
Molecule `CCC1C2Cc3ccc(O)cc3C1(CC)CCN2C` (stereo not drawn) showed a TGI greater than 100 µM.
Turning to `CN(CCCn1c2c(c3ccccc3c1=O)C(=O)c1ccccc1-2)CCCn1c2c(c3ccccc3c1=O)C(=O)c1ccccc1-2`, the GI50 is 0.181 µM and the TGI was found to be 0.75 µM.
On the same counts, the results for `C(#Cc1ccccc1C#Cc1cccs1)c1cccs1` are 71.5 µM and greater than 100 µM.
On to `COc1ccc2cc(C(=O)/C=C/c3ccc(Cl)cc3Cl)ccc2c1`, for which the GI50 is 3.98 µM and the TGI was found to be 13.7 µM.

In another test the test system is SK-OV-3 ovarian. As to the kind of experiment: growth of human tumour cells (NCI), 48 h.
Take `CC(C)(C)c1ccc(Oc2nccc(-c3c(-c4ccc(F)cc4)ncn3C3CCNCC3)n2)cc1`: the GI50 was 4.35 µM and the TGI is 7.8 µM.
